Format in all cases: biochemical
One test concerns the target T1, NEU3 (Homo sapiens, UniProt Q9UQ49).
T1 sequence (Q9UQ49 1-428): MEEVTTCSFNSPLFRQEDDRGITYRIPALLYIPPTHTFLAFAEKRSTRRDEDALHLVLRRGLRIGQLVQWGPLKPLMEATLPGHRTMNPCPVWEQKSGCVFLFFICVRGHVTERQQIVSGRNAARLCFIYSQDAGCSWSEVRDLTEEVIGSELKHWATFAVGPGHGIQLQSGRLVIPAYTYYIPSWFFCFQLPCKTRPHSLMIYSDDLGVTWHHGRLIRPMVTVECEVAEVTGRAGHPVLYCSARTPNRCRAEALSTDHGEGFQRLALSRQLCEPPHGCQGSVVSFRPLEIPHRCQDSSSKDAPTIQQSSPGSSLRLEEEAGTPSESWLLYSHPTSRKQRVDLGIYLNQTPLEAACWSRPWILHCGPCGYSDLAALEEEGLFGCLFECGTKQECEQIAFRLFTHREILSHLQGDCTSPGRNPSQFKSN
Briefly: IC50 inhibition assay using 4MU-NANA as the substrate, NEU3. Details: MBP (N); made in house; host or cells: E. coli. As to conditions: 4MU-NANA as the substrate; read-out: IC50 NEU3.

The next test deals with T2, NEU1 (Homo sapiens, UniProt Q99519).
T2 construct: made in house; host or cells: HEK293 (lentiviral transduction), crude lysate
The test can be described thus: IC50 inhibition assay using 4MU-NANA as the substrate, NEU1. How it is done: Two weeks after transduction cells were harvested and a crude lysate showing ˜200 nmol/h mg of sialidase activity used in experiments.
Assays were performed with duplicates for each point and IC50 was obtained by plotting the data with Graphpad™ Prism 5.0.

The target in another test is T3, NEU4 (Homo sapiens, UniProt Q8WWR8).
T3 sequence (Q8WWR8 1-484): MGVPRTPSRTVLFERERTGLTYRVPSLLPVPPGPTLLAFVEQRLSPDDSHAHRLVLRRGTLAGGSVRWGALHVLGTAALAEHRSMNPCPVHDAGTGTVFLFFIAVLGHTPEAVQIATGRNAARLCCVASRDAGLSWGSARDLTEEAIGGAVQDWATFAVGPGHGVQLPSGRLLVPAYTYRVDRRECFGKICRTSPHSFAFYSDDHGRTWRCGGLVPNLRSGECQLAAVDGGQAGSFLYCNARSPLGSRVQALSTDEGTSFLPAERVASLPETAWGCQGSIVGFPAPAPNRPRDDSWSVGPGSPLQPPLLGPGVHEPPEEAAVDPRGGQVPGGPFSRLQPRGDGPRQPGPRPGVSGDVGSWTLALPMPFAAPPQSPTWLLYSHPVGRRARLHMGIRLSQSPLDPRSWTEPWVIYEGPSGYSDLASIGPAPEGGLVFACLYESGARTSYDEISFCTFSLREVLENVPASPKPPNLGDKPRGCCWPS
Briefly: IC50 inhibition assay using 4MU-NANA as the substrate, NEU4. Details: GST; made in house; host or cells: E. coli. As to conditions: 4MU-NANA as the substrate; read-out: IC50 NEU4.

The next test relates to NEU1, NEU2, NEU3, NEU4. Briefly: Isoenzyme specificity/selectivity from 4MU-NANA IC50 across the four human neuraminidases.
The mark [1] stands for this setting: 4MU-NANA as the substrate, read-out: IC50 NEU1.
[2] abbreviates: isoenzyme(s) the compound is specific for, dual (bispecific) when ratio of IC50 is about 3 or less.

Where two headings read alike, the source gives them in different places.

With `CCCCCCC(=O)N[C@H]1[C@H]([C@H](O)[C@H](O)CO)OC(C(=O)O)=C[C@@H]1O` [compound 33, 5-Heptanamido-2,6-anhydro-3,5-dideoxy-D-glycero-D-galacto-non-2-enonic acid], the IC50 (as a rule, the midpoint of a concentration-inhibition curve) on NEU3 worked out at 210 ± 70 µM; on NEU1 (setting [1]), 2.1 ± 0.2 µM; at NEU4 it was 470 ± 200 µM. In the test on NEU1, NEU2, NEU3, NEU4 (setting [2]), the Target entry was “NEU1”.
As to `Nc1ccc(-c2cn(CC(=O)N[C@@H]3C(O)C=C(C(=O)O)OC3C(O)C(O)CO)nn2)cc1` (stereo partly shown) [compound 46], the 50% inhibitory concentration (IC50) on NEU3 was 430 ± 100 µM; at NEU1 (setting [1]), greater than 500 µM; on NEU4 it was 130 ± 20 µM.
Consider `CCCCC(CC)C(=O)N[C@H]1[C@H]([C@H](O)[C@H](O)CNC(C)=O)OC(C(=O)O)=C[C@@H]1O` (mixture of isomers) [compound 73, 5-(2-Ethyl)hexanamido(S/R)-9-acetanamido-2,6-anhydro-3,5-dideoxy-d-glycero-d-galacto-non-2-enonic acid], for which the IC50 on NEU1 (setting [1]) worked out at 1.8 ± 0.2 µM.
For the compound `CCC(=O)N[C@H]1C=C(C(=O)O)O[C@@H]([C@H](O)[C@H](O)CO)[C@@H]1NC(C)=O` [25a, 5-Acetamido-2,6-anhydro-4-propionamido-3,4,5-trideoxy-D-glycero-D-galacto-non-2-enonic acid], the IC50 at NEU3, at NEU1 (setting [1]) and at NEU4 was greater than 500 µM each time.
As to `CCCCCC(=O)N[C@H]1[C@H]([C@H](O)[C@H](O)CNC(=O)CC)OC(C(=O)O)=C[C@@H]1O` [compound 69, 5-Hexanamido-9-propionamido-2,6-anhydro-3,5-dideoxy-d-glycero-d-galacto-non-2-enonic acid], the results for the IC50 at NEU1 (setting [1]) and at NEU4 were 0.4 ± 0.1 µM and 270 ± 70 µM, respectively. Moreover, the Target result in the test with NEU1, NEU2, NEU3, NEU4 (setting [2]) is reported as “NEU1”.
For the compound `CC(=O)N[C@H]1[C@H]([C@H](O)[C@H](O)CO)OC(C(=O)O)=C[C@@H]1NC(=O)C1CC1` [25c, 5-Acetamido-2,6-anhydro-4-cyclopropanecarboxamido-3,4,5-trideoxy-b-glycero-D-galacto-non-2-enonic acid], the IC50 on NEU3, at NEU1 (setting [1]) and at NEU4 was greater than 500 µM throughout.
Take `CC(=O)N[C@H]1[C@H]([C@H](O)[C@H](O)CO)OC(C(=O)O)=C[C@@H]1NC(=O)C1CCC1` [25d, 5-Acetamido-2,6-anhydro-4-cyclobutanecarboxamido-3,4,5-trideoxy-D-glycero-D-galacto-non-2-enonic acid]: the IC50 at NEU3, at NEU1 (setting [1]) and on NEU4 was greater than 500 µM throughout.
Turning to `CCCCCC(=O)NCC(O)C(O)C1OC(C(=O)O)=CC(O)[C@H]1NC(C)=O` (stereo partly drawn) [compound 51, 5-Acetamido-9-hexanamido-2,6-anhydro-3,5-dideoxy-D-glycero-D-galacto-non-2-enonic acid], the IC50 was found to be 83 ± 9 µM at NEU3 and 290 ± 30 µM at NEU4. The Target entry in the test on NEU1, NEU2, NEU3, NEU4 is listed as “NEU1”.
For `CCCCCc1cn(C[C@@H](O)[C@@H](O)[C@@H]2OC(C(=O)O)=C[C@H](O)[C@H]2NC(C)=O)nn1` [compound 63, 5-Acetamido-9-(4-pentyl)triazolyl-2,6-anhydro-3,5-dideoxy-d-glycero-d-galacto-non-2-enonic acid], the concentration for half-maximal inhibition (IC50) at NEU3 came out at 6.7 ± 1.2 µM; on NEU4, 2.6 ± 0.6 µM. Moreover, in the test with NEU1, NEU2, NEU3, NEU4 (setting [2]), the Target entry is given as “NEU3/ NEU4”.
`CCCC(=O)NCC(O)C(O)C1OC(C(=O)O)=CC(O)[C@H]1NC(C)=O` (stereo partly drawn) [compound 49, 5-Acetamido-9-butyramido-2,6-anhydro-3,5-dideoxy-D-glycero-D-galacto-non-2-enonic acid]: the IC50 at NEU3 came out at 250 ± 90 µM; on NEU1 (setting [1]), 4 ± 0.5 µM.
As for `Cc1ccc(-c2cn(CC(=O)N[C@@H]3C(O)C=C(C(=O)O)OC3C(O)C(O)CO)nn2)cc1` (stereo partly shown) [compound 42], the IC50 on NEU3 is greater than 500 µM; at NEU1 (setting [1]), greater than 500 µM; on NEU4, 110 ± 20 µM.
`CCCCC(C)C(=O)N[C@H]1[C@H]([C@H](O)[C@H](O)CNC(C)=O)OC(C(=O)O)=C[C@@H]1O` (mixture of isomers) [compound 74, 5-(2-Methyl)hexanamido(S/R)-9-acetanamido-2,6-anhydro-3,5-dideoxy-d-glycero-d-galacto-non-2-enonic acid]: the IC50 on NEU3 was less than 1 µM; at NEU1 (setting [1]), 0.42 ± 0.07 µM.
On to `CCCCCC(=O)N[C@H]1[C@H]([C@H](O)[C@H](O)CNC(C)=O)OC(C(=O)O)=C[C@@H]1O` [compound 68, 5-Hexanamido-9-acetamido-2,6-anhydro-3,5-dideoxy-D-glycero-D-galacto-non-2-enonic acid], for which the values for the IC50 at NEU1 (setting [1]) and at NEU4 were 0.14 ± 0.01 µM and 170 ± 100 µM, respectively. The Target entry in the test with NEU1, NEU2, NEU3, NEU4 (setting [2]) was “NEU1”.
Turning to `CCCCC(CC)C(=O)N[C@H]1[C@H]([C@H](O)[C@H](O)CO)OC(C(=O)O)=C[C@@H]1O` (mixture of isomers) [compound 75, 5-(2-Ethyl)hexanamido(SIR)-2,6-anhydro-3,5-dideoxy-d-glycero-d-galacto-non-2-enonic acid], the results for the IC50 at NEU3 and on NEU1 (setting [1]) were less than 1 µM and 0.58 ± 0.03 µM, respectively.
The like results for `CCCCC(C)C(=O)N[C@H]1[C@H]([C@H](O)[C@H](O)CO)OC(C(=O)O)=C[C@@H]1O` (mixture of isomers) [compound 72, 5-(2-Methyl)hexanamido(S/R)-2,6-anhydro-3,5-dideoxy-d-glycero-d-galacto-non-2-enonic acid] were, in that order, less than 1 µM and 0.55 ± 0.07 µM.
Take `CCCCC(=O)N[C@H]1[C@H]([C@H](O)[C@H](O)CNC(C)=O)OC(C(=O)O)=C[C@@H]1O` [compound 67, 5-Pentanamido-9-acetamido-2,6-anhydro-3,5-dideoxy-D-glycero-D-galacto-non-2-enonic acid]: the IC50 at NEU1 (setting [1]) was 0.35 ± 0.03 µM; at NEU4, greater than 500 µM. The Target result in the test with NEU1, NEU2, NEU3, NEU4 (setting [2]) is on record as “NEU1”.
As for `CC(=O)N[C@@H]1C(O)C=C(C(=O)O)OC1C(O)C(O)CNC(=O)C(C)C` (stereo partly drawn) [compound 53, 5-Acetamido-9-isobutyramido-2,6-anhydro-3,5-dideoxy-D-glycero-D-galacto-non-2-enonic acid], the IC50 at NEU3 came out at 96 ± 28 µM; at NEU4, 230 ± 60 µM.
For the compound `CCCCC(=O)N[C@H]1C=C(C(=O)O)O[C@@H]([C@H](O)[C@H](O)CO)[C@@H]1NC(C)=O` [25b, 5-Acetamido-2,6-anhydro-4-pentanamido-3,4,5-trideoxy-D-glycero-D-galacto-non-2-enonic acid], the IC50 on NEU3, at NEU1 (setting [1]) and on NEU4 was greater than 500 µM in each case.
`[N-]=[N+]=NCC(=O)N[C@@H]1C(O)C=C(C(=O)O)OC1C(O)C(O)CO` (stereo partly drawn) [compound 40, 5-(N-2-azidoacetyl)-2,3,5-trideoxy-D-glycero-D-galacto-2-nonulopyranosonic acid]: the IC50 on NEU3 is 4.4 ± 0.9 µM; at NEU1 (setting [1]), 24 ± 2 µM; on NEU4, 5.6 ± 0.8 µM.
The like results for `CC(=O)N[C@@H]1C(O)C=C(C(=O)O)OC1C(O)C(O)CNC(=O)CC(C)C` (stereo partly drawn) [compound 54, 5-Acetamido-9-(3-methylbutanamido)-2,6-anhydro-3,5-dideoxy-D-glycero-D-galacto-non-2-enonic acid] were, in that order, 72 ± 20 µM, 2.5 ± 0.3 µM and 130 ± 40 µM.
In the case of `CCCCCC(=O)N[C@H]1[C@H]([C@H](O)[C@H](O)CO)OC(C(=O)O)=C[C@@H]1O` [compound 32, 5-Hexanamido-2,6-anhydro-3,5-dideoxy-D-glycero-D-galacto-non-2-enonic acid], the IC50 at NEU1 (setting [1]) was determined as 0.42 ± 0.06 µM; on NEU1 (target isoenzyme NEU1, 4MU-NANA substrate, read-out: IC50 [μM] NEU1), 0.4 µM; at NEU4 it was 440 ± 150 µM. For the same compound, the Target entry with NEU1, NEU2, NEU3, NEU4 (setting [2]) was “NEU1”.
In the case of `CC(C)CCC(=O)N[C@H]1[C@H]([C@H](O)[C@H](O)CO)OC(C(=O)O)=C[C@@H]1NC(=N)N` [compound 71, 5-(4-methylpentanamido)-2,6-anhydro-4-guanidino-3,4,5-trideoxy-D-glycero-D-galacto-non-2-enonic acid], the IC50 at NEU3 stood at 150 ± 20 µM; on NEU1 (setting [1]) it was 14 ± 2 µM; on NEU4 it was 47 ± 7 µM.

These data come from patent US11773129B2, “Methods of preventing or treating atherosclerosis with inhibitors of specific isoenzymes of human neuraminidase” (THE GOVERNORS OF THE UNIVERSITY OF ALBERTA, priority 2017, dated 2023).
